Measured values reported in patent US7973075B2, “Kainate receptor-selective epimeric analogs of dysiherbaine” (priority 2007, dated 2011).

Biological target: T1, GluR1 (Rattus norvegicus, UniProt P19490)
T1 construct: expressed in transfected cells; host or cells: COS-7 or HEK-T/17
Assay: Radioligand displacement ([3H]AMPA), Example 1
Assay type: binding
Conditions: not given
Description: (§1) Dysiherbaine (DH) was used as a template for generating novel KAR ligands. (See FIG. 1.) These included 8-deoxy and 9-deoxy analogs of neodysiherbaine (neoDH). (See FIG. 2.) The binding of these analogs to glutamate receptors was assessed by radioligand binding as follows. Membrane preparations from COS-7 or HEK-T/17 cells were isolated 2-3 days after transfection. Displacement assays were performed as described previously (Swanson et al., NEURON 1997; 19:913-26). Unlabeled marine toxin analogs were used to displace [^3H]kainate or [^3H]AMPA (PerkinElmer) from kainate and AMPA receptors, respectively. (See FIG. 2 and Table 1.)
(§2) Non-specific binding was defined in the presence of 1 mM glutamate. The effect of these analogs on electrophysiology was assessed as follows. HEK 293 cells were transfected with receptor cDNAs in combination with eGFP cDNA. Patch-clamp recordings from transfected cells were made 24-72 hours later using a fast application system described previously (Swanson et al., NEURON 1997; 19:913-26). (See FIG. 3.)
(§3) Additional epimer analogs were generated. These included 4-epi-neodysiherbaine, 8-epi-neodysiherbaine, 9-epi-neodysiherbaine, and 8,9-epi-neodysiherbaine. (See FIG. 4.) The binding of these analogs to glutamate receptors was assessed by radioligand binding as described above. (See FIG. 4 and Table 2.)

T1 sequence (P19490 19-907 isoform P19490-2 limits assumed): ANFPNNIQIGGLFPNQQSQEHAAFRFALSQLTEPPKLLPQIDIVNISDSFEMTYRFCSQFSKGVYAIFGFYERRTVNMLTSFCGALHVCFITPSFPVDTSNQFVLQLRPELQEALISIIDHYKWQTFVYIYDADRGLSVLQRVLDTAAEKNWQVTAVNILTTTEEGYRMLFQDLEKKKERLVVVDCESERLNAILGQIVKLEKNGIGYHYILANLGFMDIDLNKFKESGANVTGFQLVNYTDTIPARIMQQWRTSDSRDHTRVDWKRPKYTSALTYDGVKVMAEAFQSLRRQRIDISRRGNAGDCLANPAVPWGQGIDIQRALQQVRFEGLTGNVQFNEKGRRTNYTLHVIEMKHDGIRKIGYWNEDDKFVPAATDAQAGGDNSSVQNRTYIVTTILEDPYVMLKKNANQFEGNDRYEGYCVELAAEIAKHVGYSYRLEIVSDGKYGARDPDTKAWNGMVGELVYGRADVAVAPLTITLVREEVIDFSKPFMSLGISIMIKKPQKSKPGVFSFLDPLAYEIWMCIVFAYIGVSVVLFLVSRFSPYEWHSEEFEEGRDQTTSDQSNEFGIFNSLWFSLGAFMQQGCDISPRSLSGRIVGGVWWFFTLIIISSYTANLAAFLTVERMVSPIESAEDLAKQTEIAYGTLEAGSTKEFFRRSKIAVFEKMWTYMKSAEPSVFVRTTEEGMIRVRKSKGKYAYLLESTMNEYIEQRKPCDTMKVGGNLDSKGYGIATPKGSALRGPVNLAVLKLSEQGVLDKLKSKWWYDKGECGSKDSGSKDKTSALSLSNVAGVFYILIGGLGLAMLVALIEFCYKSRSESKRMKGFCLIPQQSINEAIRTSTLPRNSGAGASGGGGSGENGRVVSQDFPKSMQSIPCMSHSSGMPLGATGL

Compound | Ki
N[C@@H](C[C@]1(C(=O)O)C[C@H]2OC[C@@H](O)C[C@H]2O1)C(=O)O [8-deoxy-neoDH] | > 100 µM

Same assay, conditions: Tables 1-2; read-out: GluR1 binding affinity (displacement of [3H]AMPA)

Compound | Ki
NC(CC1(C(=O)O)CC2OCC(O)C(O)C2O1)C(=O)O (stereo not drawn) [9-epi-neoDH, 9-epi-neodysiherbaine] | > 100 µM
NC(CC1(C(=O)O)CC2OCC(O)C(O)C2O1)C(=O)O (stereo not drawn) [8,9-epi-neoDH, 8,9-epi-neodysiherbaine] | > 100 µM
NC(CC1(C(=O)O)CC2OCC(O)C(O)C2O1)C(=O)O (stereo not drawn) [8-epi-neoDH, 8-epi-neodysiherbaine] | 17 µM

Biological target: T2, GluR2 (Rattus norvegicus, UniProt P19491)
T2 construct: expressed in transfected cells; host or cells: COS-7 or HEK-T/17
T2 sequence (P19491 22-883 isoform P19491-2 limits assumed): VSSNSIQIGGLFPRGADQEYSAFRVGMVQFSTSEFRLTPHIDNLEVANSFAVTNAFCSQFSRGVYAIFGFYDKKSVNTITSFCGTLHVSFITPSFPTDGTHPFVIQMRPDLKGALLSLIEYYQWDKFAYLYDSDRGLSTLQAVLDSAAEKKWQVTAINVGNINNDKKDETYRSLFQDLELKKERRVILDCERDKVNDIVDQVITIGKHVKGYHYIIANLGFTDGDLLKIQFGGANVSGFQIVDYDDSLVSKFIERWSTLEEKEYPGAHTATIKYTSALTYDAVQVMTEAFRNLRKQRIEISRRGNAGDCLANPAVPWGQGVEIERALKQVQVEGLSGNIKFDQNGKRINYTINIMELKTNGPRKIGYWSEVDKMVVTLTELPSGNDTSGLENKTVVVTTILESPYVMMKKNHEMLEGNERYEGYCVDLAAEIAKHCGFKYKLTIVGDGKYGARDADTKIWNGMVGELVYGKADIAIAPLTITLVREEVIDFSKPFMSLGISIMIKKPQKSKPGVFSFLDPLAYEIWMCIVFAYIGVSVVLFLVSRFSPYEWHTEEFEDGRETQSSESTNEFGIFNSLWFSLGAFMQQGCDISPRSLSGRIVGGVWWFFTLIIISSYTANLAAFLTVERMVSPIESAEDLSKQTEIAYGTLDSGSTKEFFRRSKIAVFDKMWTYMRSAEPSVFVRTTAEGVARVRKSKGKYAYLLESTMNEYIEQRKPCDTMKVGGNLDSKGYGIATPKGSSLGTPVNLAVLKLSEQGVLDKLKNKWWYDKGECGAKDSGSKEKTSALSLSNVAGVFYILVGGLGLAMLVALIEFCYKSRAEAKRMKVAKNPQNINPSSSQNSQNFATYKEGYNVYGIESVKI
Assay: Radioligand displacement ([3H]AMPA), Example 1
Assay type: binding
Conditions: not given
Description: as §1, §2, §3

Compound | Ki
N[C@@H](C[C@]1(C(=O)O)C[C@H]2OC[C@@H](O)C[C@H]2O1)C(=O)O [8-deoxy-neoDH] | > 100 µM

Same assay, conditions: Tables 1-2; read-out: GluR2 binding affinity (displacement of [3H]AMPA)

Compound | Ki
NC(CC1(C(=O)O)CC2OCC(O)C(O)C2O1)C(=O)O (stereo not drawn) [9-epi-neoDH, 9-epi-neodysiherbaine] | > 100 µM
NC(CC1(C(=O)O)CC2OCC(O)C(O)C2O1)C(=O)O (stereo not drawn) [8,9-epi-neoDH, 8,9-epi-neodysiherbaine] | > 100 µM
NC(CC1(C(=O)O)CC2OCC(O)C(O)C2O1)C(=O)O (stereo not drawn) [8-epi-neoDH, 8-epi-neodysiherbaine] | 23 µM

Biological target: T3, GluR5-2a (Rattus norvegicus, UniProt P22756, DEL402-416)
T3 construct: expressed in transfected cells; host or cells: HEK-293-T/17
T3 sequence (P22756 with tags, fused parts or gaps isoform P22756-2 limits assumed, stated change not applied): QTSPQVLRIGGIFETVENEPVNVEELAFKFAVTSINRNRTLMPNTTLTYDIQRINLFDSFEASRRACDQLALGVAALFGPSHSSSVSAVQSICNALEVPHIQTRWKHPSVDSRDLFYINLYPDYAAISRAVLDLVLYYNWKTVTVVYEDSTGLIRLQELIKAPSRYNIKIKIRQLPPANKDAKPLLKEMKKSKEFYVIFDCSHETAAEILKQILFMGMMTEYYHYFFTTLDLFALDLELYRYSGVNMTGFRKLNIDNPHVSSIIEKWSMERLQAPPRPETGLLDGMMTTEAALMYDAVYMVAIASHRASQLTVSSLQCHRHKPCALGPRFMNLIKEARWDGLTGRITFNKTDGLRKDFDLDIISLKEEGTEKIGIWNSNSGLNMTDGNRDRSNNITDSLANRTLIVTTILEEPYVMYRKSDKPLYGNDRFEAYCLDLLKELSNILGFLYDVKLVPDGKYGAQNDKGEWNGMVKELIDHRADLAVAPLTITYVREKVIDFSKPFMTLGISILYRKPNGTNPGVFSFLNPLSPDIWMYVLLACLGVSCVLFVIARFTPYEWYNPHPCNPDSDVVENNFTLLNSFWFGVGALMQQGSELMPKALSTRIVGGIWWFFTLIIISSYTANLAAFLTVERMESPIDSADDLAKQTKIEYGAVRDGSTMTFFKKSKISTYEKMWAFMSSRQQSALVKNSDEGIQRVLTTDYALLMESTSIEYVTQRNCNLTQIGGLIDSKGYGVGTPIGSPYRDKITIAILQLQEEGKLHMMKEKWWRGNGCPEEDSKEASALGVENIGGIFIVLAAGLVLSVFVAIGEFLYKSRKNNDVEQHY
Assay: Radioligand binding ([3H]kainate displacement), HEK-293-T/17 membranes, Example 2
Conditions: Cheng-Prusoff, read-out: Ki GluR5-2a
Description: (§4) Radioligand binding. Membrane preparations from HEK-293-T/17 cells were prepared and used in radioligand binding assays as described previously (Sanders et al., 2005). Unlabeled analogs were used to displace [3H]kainate (10-20 nM, PerkinElmer Life and Analytical Sciences, Boston, Mass.) or [3H]AMPA (20 nM, PerkinElmer Life and Analytical Sciences, Boston, Mass.) from KARs and AMPARs, respectively. Nonspecific binding was determined in the presence of 1 mM glutamate. After 1 hour incubation at 4° C., samples were harvested by rapid filtration onto Whatman GF/C membranes. Upon addition of scintillation fluid, membranes were incubated for 1 hour at room temperature. A Beckman LS5000TD scintillation counter was used for quantification (Beckman Coulter Inc., Fullerton, Calif.). Data were plotted and fit with a one-site competition curve with fixed minima and maxima using Prism 4 (GraphPad Software, Inc). Ki's were calculated with the Cheng-Prusoff equation using the determined IC5o values and the radioligand Kd. Data were plotted and fit with a one-site competition curve with fixed minima (0) and maxima (100) (Prism4, GraphPad Software, Inc.). Correlation analysis was performed with these binding data and the seizure activity of each analog, represented as ED50 values.
(§5) The pharmacological profiles of the Group I analogs, 8-deoxy-neoDH and 9-deoxyneoDH, were analyzed initially in radioligand binding experiments with expressed recombinant AMPA and kainate receptor subunits. Displacement of [3H]kainate from cell membranes with a range of analog concentrations yielded IC50 values that were then used to calculate Ki values for each analog/receptor combination. Both Group 1 analogs retained high affinity only for GluR5-2a KAR subunits (FIG. 8A). […] Weak binding to other KAR and AMPAR subunits was observed, with all Ki values estimated at >10 μM (n=3-5; Table 3, FIG. 8A).
(§6) For comparison, the Ki values for neoDH and MSVIII-19 are included in the table (Sanders et al., 2005). Removal of the C9 hydroxyl eliminated binding to all receptor subunits (Ki values estimated at >100 μM), with the exception of GluR5-2a KARs.

Compound | Ki
NC(CC1(C(=O)O)CC2OCC(O)C(O)C2O1)C(=O)O (stereo not drawn) [9-epi-neoDH, 9-epi-neodysiherbaine] | 0.292 µM
NC(CC1(C(=O)O)CC2OCC(O)C(O)C2O1)C(=O)O (stereo not drawn) [8,9-epi-neoDH, 8,9-epi-neodysiherbaine] | 48 µM
NC(CC1(C(=O)O)CC2OCC(O)C(O)C2O1)C(=O)O (stereo not drawn) [8-epi-neoDH, 8-epi-neodysiherbaine] | 0.034 µM

Same assay, conditions: Ki GluR5-2a, Cheng-Prusoff

Compound | Ki
N[C@@H](C[C@]1(C(=O)O)C[C@H]2OC[C@@H](O)C[C@H]2O1)C(=O)O [8-deoxy-neoDH] | 0.0015 µM

Biological target: T4, GluR6a (Rattus norvegicus, UniProt P42260)
T4 construct: expressed in transfected cells; host or cells: HEK-293-T/17
T4 sequence (P42260 32-908): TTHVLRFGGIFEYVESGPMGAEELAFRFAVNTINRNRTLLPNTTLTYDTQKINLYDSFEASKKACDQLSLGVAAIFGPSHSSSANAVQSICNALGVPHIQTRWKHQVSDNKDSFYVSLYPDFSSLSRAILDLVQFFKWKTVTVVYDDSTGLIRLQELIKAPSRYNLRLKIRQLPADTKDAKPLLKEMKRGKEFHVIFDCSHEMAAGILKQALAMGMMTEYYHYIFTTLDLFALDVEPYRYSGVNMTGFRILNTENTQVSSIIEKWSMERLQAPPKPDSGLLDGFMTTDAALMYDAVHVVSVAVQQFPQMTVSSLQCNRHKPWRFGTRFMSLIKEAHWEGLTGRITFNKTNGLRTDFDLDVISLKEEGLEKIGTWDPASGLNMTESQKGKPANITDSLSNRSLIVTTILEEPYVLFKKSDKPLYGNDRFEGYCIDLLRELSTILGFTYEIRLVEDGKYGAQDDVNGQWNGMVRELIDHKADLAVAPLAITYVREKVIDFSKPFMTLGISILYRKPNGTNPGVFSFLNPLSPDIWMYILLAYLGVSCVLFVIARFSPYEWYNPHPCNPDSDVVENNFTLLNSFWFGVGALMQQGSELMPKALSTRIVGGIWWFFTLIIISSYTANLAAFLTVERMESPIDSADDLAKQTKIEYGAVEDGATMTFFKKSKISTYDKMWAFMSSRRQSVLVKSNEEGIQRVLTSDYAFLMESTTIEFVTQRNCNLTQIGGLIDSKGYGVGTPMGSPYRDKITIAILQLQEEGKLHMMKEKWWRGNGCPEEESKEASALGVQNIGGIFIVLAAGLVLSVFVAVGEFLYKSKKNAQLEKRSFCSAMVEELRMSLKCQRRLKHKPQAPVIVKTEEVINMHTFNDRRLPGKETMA
Assay: as above
Conditions: not given
Description: as §4, §5, §6

Compound | binding affinity for GluR6a subunit
NC(CC1(C(=O)O)CC2OCC(O)C(O)C2O1)C(=O)O (stereo not drawn) [9-epi-neoDH, 9-epi-neodysiherbaine] | do not exhibit measurable affinity

Same assay, conditions: Ki GluR6a, [3H]kainate displacement; Cheng-Prusoff

Compound | Ki
N[C@@H](C[C@]1(C(=O)O)C[C@H]2OC[C@@H](O)C[C@H]2O1)C(=O)O [8-deoxy-neoDH] | 48 µM

Same assay, conditions: [3H]kainate displacement; Cheng-Prusoff; read-out: Ki GluR6a

Compound | Ki
NC(CC1(C(=O)O)CC2OCC(O)C(O)C2O1)C(=O)O (stereo not drawn) [9-epi-neoDH, 9-epi-neodysiherbaine] | > 100 µM
NC(CC1(C(=O)O)CC2OCC(O)C(O)C2O1)C(=O)O (stereo not drawn) [8,9-epi-neoDH, 8,9-epi-neodysiherbaine] | > 100 µM
NC(CC1(C(=O)O)CC2OCC(O)C(O)C2O1)C(=O)O (stereo not drawn) [8-epi-neoDH, 8-epi-neodysiherbaine] | 22 µM

Biological target: T5, GluR7a (Rattus norvegicus, UniProt P42264)
T5 construct: expressed in transfected cells; host or cells: HEK-293-T/17
T5 sequence (P42264 32-919): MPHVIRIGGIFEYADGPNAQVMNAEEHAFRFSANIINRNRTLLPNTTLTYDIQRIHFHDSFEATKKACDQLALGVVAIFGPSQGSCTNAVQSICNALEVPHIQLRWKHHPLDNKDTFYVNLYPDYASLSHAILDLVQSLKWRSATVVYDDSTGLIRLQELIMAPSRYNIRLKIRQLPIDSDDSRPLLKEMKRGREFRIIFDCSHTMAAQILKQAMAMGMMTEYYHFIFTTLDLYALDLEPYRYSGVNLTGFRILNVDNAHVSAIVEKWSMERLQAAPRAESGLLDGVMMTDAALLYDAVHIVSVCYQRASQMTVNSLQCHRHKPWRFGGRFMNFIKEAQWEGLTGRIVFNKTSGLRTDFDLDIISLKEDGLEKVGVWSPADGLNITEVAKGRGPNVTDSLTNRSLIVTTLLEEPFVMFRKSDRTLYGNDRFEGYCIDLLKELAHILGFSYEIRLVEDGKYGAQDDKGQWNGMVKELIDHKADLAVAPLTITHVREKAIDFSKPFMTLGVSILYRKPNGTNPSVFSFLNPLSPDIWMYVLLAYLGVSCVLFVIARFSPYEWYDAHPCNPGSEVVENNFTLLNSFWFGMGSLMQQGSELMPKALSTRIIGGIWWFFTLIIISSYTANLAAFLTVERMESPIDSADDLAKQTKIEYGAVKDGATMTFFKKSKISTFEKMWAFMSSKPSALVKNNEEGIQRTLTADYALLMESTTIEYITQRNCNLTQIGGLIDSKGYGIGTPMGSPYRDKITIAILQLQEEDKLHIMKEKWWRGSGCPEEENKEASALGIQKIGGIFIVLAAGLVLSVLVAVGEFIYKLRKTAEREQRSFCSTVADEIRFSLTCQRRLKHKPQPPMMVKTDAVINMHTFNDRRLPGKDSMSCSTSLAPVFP
Assay: as above
Conditions: not given
Description: as §4, §5, §6

Compound | Ki
N[C@@H](C[C@]1(C(=O)O)C[C@H]2OC[C@@H](O)C[C@H]2O1)C(=O)O [8-deoxy-neoDH] | 2.9 µM

Same assay, conditions: [3H]kainate displacement; Cheng-Prusoff; read-out: Ki GluR7a

Compound | Ki
NC(CC1(C(=O)O)CC2OCC(O)C(O)C2O1)C(=O)O (stereo not drawn) [9-epi-neoDH, 9-epi-neodysiherbaine] | > 100 µM
NC(CC1(C(=O)O)CC2OCC(O)C(O)C2O1)C(=O)O (stereo not drawn) [8,9-epi-neoDH, 8,9-epi-neodysiherbaine] | > 100 µM
NC(CC1(C(=O)O)CC2OCC(O)C(O)C2O1)C(=O)O (stereo not drawn) [8-epi-neoDH, 8-epi-neodysiherbaine] | 1.7 µM

Biological target: T6, KA2 (Rattus norvegicus, UniProt Q63273)
T6 construct: expressed in transfected cells; host or cells: HEK-293-T/17
T6 sequence (Q63273 15-979): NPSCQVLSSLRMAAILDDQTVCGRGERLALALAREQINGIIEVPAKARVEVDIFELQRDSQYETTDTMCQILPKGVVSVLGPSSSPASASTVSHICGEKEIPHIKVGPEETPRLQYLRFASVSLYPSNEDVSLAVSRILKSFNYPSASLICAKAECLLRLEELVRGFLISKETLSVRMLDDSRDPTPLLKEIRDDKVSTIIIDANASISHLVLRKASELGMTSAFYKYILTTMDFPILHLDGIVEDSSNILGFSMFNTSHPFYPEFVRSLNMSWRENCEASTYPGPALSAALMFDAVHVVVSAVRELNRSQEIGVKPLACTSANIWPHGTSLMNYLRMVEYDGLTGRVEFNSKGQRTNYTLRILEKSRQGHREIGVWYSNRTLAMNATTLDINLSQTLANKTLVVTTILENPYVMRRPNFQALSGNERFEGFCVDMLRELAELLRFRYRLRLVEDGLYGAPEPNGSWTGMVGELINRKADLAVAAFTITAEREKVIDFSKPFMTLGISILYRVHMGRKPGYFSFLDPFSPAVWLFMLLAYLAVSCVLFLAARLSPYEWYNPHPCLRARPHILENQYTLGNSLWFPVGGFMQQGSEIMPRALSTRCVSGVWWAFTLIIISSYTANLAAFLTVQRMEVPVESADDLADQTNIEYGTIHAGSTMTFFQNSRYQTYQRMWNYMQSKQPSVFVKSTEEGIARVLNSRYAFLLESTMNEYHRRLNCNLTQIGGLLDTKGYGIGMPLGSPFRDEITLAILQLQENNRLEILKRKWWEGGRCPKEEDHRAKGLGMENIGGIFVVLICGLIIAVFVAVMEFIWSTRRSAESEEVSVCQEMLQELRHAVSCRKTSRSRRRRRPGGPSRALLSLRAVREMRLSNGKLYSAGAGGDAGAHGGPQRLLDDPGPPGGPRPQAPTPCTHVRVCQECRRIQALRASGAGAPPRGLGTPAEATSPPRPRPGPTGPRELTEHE
Assay: as above
Conditions: Ki KA2, [3H]kainate displacement; Cheng-Prusoff
Description: as §4, §5, §6

Compound | Ki
N[C@@H](C[C@]1(C(=O)O)C[C@H]2OC[C@@H](O)C[C@H]2O1)C(=O)O [8-deoxy-neoDH] | 20 µM

Same assay, conditions: [3H]kainate displacement; Cheng-Prusoff; read-out: Ki KA2

Compound | Ki
NC(CC1(C(=O)O)CC2OCC(O)C(O)C2O1)C(=O)O (stereo not drawn) [9-epi-neoDH, 9-epi-neodysiherbaine] | >100 µM
NC(CC1(C(=O)O)CC2OCC(O)C(O)C2O1)C(=O)O (stereo not drawn) [8,9-epi-neoDH, 8,9-epi-neodysiherbaine] | >100 µM
NC(CC1(C(=O)O)CC2OCC(O)C(O)C2O1)C(=O)O (stereo not drawn) [8-epi-neoDH, 8-epi-neodysiherbaine] | >100 µM

Tested on: other KAR and AMPAR subunits
Assay: Radioligand binding, remaining subunits stated collectively, Example 2
Conditions: not given
Description: as §4, §5, §6

Compound | binding to other KA and AMPAR subunits
NC(CC1(C(=O)O)CC2OCC(O)C(O)C2O1)C(=O)O (stereo not drawn) [9-epi-neoDH, 9-epi-neodysiherbaine] | inactive at other subunits
NC(CC1(C(=O)O)CC2OCC(O)C(O)C2O1)C(=O)O (stereo not drawn) [8,9-epi-neoDH, 8,9-epi-neodysiherbaine] | effectively eliminated affinity for all receptor subunits

Biological target: T7, other KAR and AMPAR subunits
T7 construct: Ki values at other KAR and AMPAR subunits (all subunits except those named); other: estimated
Assay: as above
Conditions: estimated; read-out: Ki values at other KAR and AMPAR subunits (all subunits except those named)
Description: as §4, §5, §6

Compound | Ki
N[C@@H](C[C@]1(C(=O)O)C[C@H]2OC[C@@H](O)C[C@H]2O1)C(=O)O [8-deoxy-neoDH] | > 10 µM
